Several values for one entry are separate records, joined by “and”; a condition that tells them apart may be missing. Identical values can stand only once. Inconclusive results and toxic doses are left out.
Tested on: P388 leukemia ip, CD2F1 mice, survival T/C
Assay: NCI In Vivo Anticancer Drug Screen. Data for tumor model P388 Leukemia (intraperitoneal) in CD2F1 (CDF1) mice
Settings: endpoint: median survival time, higher = longer survival
How it was run: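 Mice carrying the transplanted tumor received test compound or vehicle. Survival was recorded in each group, and the value is the treated-group measurement divided by that of the vehicle-treated control group.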

[1] = dose: 50.0 mg/kg/injection, schedule: Q01DX005 (ip), vehicle: Klucel (hydroxypropylcellulose) (HPC)
[2] = dose: 25.0 mg/kg/injection, schedule: Q01DX005 (ip), vehicle: saline with Tween-80
[3] = dose: 50.0 mg/kg/injection, schedule: Q01DX005 (ip), vehicle: saline with Tween-80
[4] = dose: 100.0 mg/kg/injection, schedule: Q01DX005 (ip), vehicle: saline with Tween-80
[5] = dose: 50.0 mg/kg/injection, schedule: Q01DX009 (ip), vehicle: Klucel (hydroxypropylcellulose) (HPC)
[6] = dose: 100.0 mg/kg/injection, schedule: Q01DX009 (ip), vehicle: Klucel (hydroxypropylcellulose) (HPC)
[7] = dose: 200.0 mg/kg/injection, schedule: Q01DX009 (ip), vehicle: Klucel (hydroxypropylcellulose) (HPC)
[8] = dose: 25.0 mg/kg/injection, schedule: Q01DX009 (ip), vehicle: saline with Tween-80
[9] = dose: 50.0 mg/kg/injection, schedule: Q01DX009 (ip), vehicle: saline with Tween-80
[10] = dose: 100.0 mg/kg/injection, schedule: Q01DX009 (ip), vehicle: saline with Tween-80
[11] = dose: 200.0 mg/kg/injection, schedule: Q01DX009 (ip), vehicle: saline with Tween-80

With `O=C(CBr)NN=C(c1ccccc1)c1ccccc1` the T/C (dose: 29.0 mg/kg/injection, schedule: Q01DX009 (ip), vehicle: saline with Tween-80) was 104 % of control, the T/C (dose: 58.0 mg/kg/injection, schedule: Q01DX009 (ip), vehicle: saline with Tween-80) was 101 % of control and the T/C (dose: 116.0 mg/kg/injection, schedule: Q01DX009 (ip), vehicle: saline with Tween-80) was 110 % of control.
In the case of `COc1ccc(Cc2c3cc(OC)c(OC)cc3cc[n+]2CC(=O)c2ccc(F)cc2)cc1OC`, the T/C (dose: 25.0 mg/kg/injection, schedule: Q01DX005 (ip), vehicle: Klucel (hydroxypropylcellulose) (HPC)) is reported as 108 % of control and the T/C [1] is reported as 100 % of control.
In the case of `N=c1ccn2c(n1)OC1C(OP(=O)(O)O)C(CO)OC12` (stereo not given), the T/C (dose: 177.0 mg/kg/injection, schedule: Q04DX003 (ip), vehicle: saline with Tween-80) is reported as 154 % of control.
`NC1=NC(c2ccccc2Cl)CC(c2cc3ccccc3o2)=N1` (stereo not given) was tested, and the T/C (dose: 100.0 mg/kg/injection, schedule: Q01DX001 (ip), vehicle: saline with Tween-80) was 92 % of control, the T/C (dose: 200.0 mg/kg/injection, schedule: Q01DX001 (ip), vehicle: saline with Tween-80) was 89 % of control and the T/C (dose: 400.0 mg/kg/injection, schedule: Q01DX001 (ip), vehicle: saline with Tween-80) was 100 % of control.
In the case of `COc1ccc(C(CNC(=O)Cc2ccc(Oc3cc(CC(=O)NCC(OC)c4ccc(OC)c(OC)c4)ccc3OC)cc2)OC)cc1OC` (stereo not given), the T/C (dose: 60.0 mg/kg/injection, schedule: Q01DX005 (ip), vehicle: saline with Tween-80) is reported as 94 % of control, the T/C (dose: 120.0 mg/kg/injection, schedule: Q01DX005 (ip), vehicle: saline with Tween-80) is reported as 86 % of control and the T/C (dose: 240.0 mg/kg/injection, schedule: Q01DX005 (ip), vehicle: saline with Tween-80) is reported as 92 % of control.
In the case of `COC(=O)Nc1nc2ccc(C(O)(c3ccccc3)c3cccs3)cc2[nH]1` (stereo not given), the T/C [2] is reported as 95 % of control, the T/C [3] is reported as 95 % of control and the T/C [4] is reported as 99 % of control.
For `Cn1c(-c2ccccc2)c2c(c1-c1ccccc1)C(=O)c1ccccc1C2=O`, the T/C [5] was 95 % of control, the T/C [6] was 101 % of control and the T/C [7] was 100 % of control.
For `CNc1nc2c(s1)c1c(O)c3c(O)c(C)c4c(c32)C(=O)C(C)(O/C=C/C(OC)C(C)C(OC(C)=O)C(C)C(O)C(C)C(O)C(C)/C=C/C=C(/C)C(=O)N1)O4` (stereo not given), the T/C (dose: 25.0 mg/kg/injection, schedule: Q01DX009 (ip), vehicle: Klucel (hydroxypropylcellulose) (HPC)) was 98 % of control, the T/C [5] was 100 % of control and the T/C [6] was 106 % of control. The T/C [7] was 100 % of control.
With `Fc1ccc(N(c2nc(Cl)nc(Cl)n2)c2nc(Cl)nc(Cl)n2)cc1` the T/C (dose: 12.5 mg/kg/injection, schedule: Q01DX009 (ip), vehicle: saline with Tween-80) was 113 % of control, the T/C [8] was 100 % of control and the T/C [9] was 113 % of control.
`COCCOCCOCCOCCOC(=O)CCn1cc(F)c(=O)[nH]c1=O` was tested, and the T/C (dose: 45.0 mg/kg/injection, schedule: Q04DX002 (ip), vehicle: saline) was 99 % of control, the T/C (dose: 90.0 mg/kg/injection, schedule: Q04DX002 (ip), vehicle: saline) was 106 % of control and the T/C (dose: 180.0 mg/kg/injection, schedule: Q04DX002 (ip), vehicle: saline) was 101 % of control. For the same compound, the T/C (dose: 360.0 mg/kg/injection, schedule: Q04DX002 (ip), vehicle: saline) was 108 % of control.
In the case of `COc1ccc(B2OCCO2)cc1`, the T/C [3] is reported as 100 % of control, the T/C [4] is reported as 97 % of control and the T/C (dose: 200.0 mg/kg/injection, schedule: Q01DX005 (ip), vehicle: saline with Tween-80) is reported as 101 % of control.
`C1COCCOCCNCCOCCOCCN1` was tested, and the T/C (dose: 50.0 mg/kg/injection, schedule: Q01DX005 (ip), vehicle: saline) was 95 % of control and the T/C (dose: 100.0 mg/kg/injection, schedule: Q01DX005 (ip), vehicle: saline) was 98 % of control.
`CC(=O)OCC1OC(Oc2cccc(C=C(C(C)=O)C(C)=O)c2)C(OC(C)=O)C(OC(C)=O)C1OC(C)=O` (stereo not given) was tested, and the T/C [1] was 100 % of control, the T/C (dose: 100.0 mg/kg/injection, schedule: Q01DX005 (ip), vehicle: Klucel (hydroxypropylcellulose) (HPC)) was 98 % of control and the T/C (dose: 200.0 mg/kg/injection, schedule: Q01DX005 (ip), vehicle: Klucel (hydroxypropylcellulose) (HPC)) was 105 % of control.
In the case of `C[S+]1C2(C3CC4CC(C3)CC2C4)C12C1CC3CC(C1)CC2C3` (stereo not given), the T/C (dose: 50.0 mg/kg/injection, schedule: Q01DX005 (ip), vehicle: distilled water + alcohol) is reported as 104 % of control and the T/C (dose: 100.0 mg/kg/injection, schedule: Q01DX005 (ip), vehicle: distilled water + alcohol) is reported as 109 % of control.
With `COC(=O)CC1(C(=O)OC)C(Sc2ccccc2)=C(c2ccccc2)N2CCCC21` (stereo not given) the T/C (dose: 21.88 mg/kg/injection, schedule: Q01DX009 (ip), vehicle: Klucel (hydroxypropylcellulose) (HPC)) was 101 % of control, the T/C (dose: 43.75 mg/kg/injection, schedule: Q01DX009 (ip), vehicle: Klucel (hydroxypropylcellulose) (HPC)) was 96 % of control and the T/C (dose: 87.5 mg/kg/injection, schedule: Q01DX009 (ip), vehicle: Klucel (hydroxypropylcellulose) (HPC)) was 96 % of control. The T/C (dose: 175.0 mg/kg/injection, schedule: Q01DX009 (ip), vehicle: Klucel (hydroxypropylcellulose) (HPC)) was 92 % of control.
`CCCCCCC(=O)/C=C/c1cccc(OCc2ccc(Cl)c(Cl)c2)c1` was tested, and the T/C [9] was 115 % of control, the T/C [10] was 90 % of control and the T/C [11] was 97 % of control.
`CCC(C)C[c-]1[c-][c-][c-][c-]1.[Cl][Zr][Cl].[c-]1[c-][c-][cH-][c-]1` (stereo not given) was tested, and the T/C (dose: 6.25 mg/kg/injection, schedule: Q04DX002 (ip), vehicle: saline) was 102 % of control, the T/C (dose: 12.5 mg/kg/injection, schedule: Q01DX001 (ip), vehicle: saline with Tween-80) was 100 % of control and the T/C (dose: 12.5 mg/kg/injection, schedule: Q04DX002 (ip), vehicle: saline) was 106 % of control. The T/C (dose: 25.0 mg/kg/injection, schedule: Q01DX001 (ip), vehicle: saline with Tween-80) was 98 % of control, the T/C (dose: 25.0 mg/kg/injection, schedule: Q04DX002 (ip), vehicle: saline) was 100 % of control and the T/C (dose: 50.0 mg/kg/injection, schedule: Q01DX001 (ip), vehicle: saline with Tween-80) was 97 % of control.
`CC(=O)CC(C)(C)c1ccccc1` was tested, and the T/C [8] was 106 % of control, the T/C [9] was 104 % of control and the T/C [10] was 107 % of control and 108 % of control. The T/C [11] was 103 % of control and 116 % of control and the T/C (dose: 400.0 mg/kg/injection, schedule: Q01DX009 (ip), vehicle: saline with Tween-80) was 113 % of control and 95 % of control.
With `COC(=O)/C=C1\C(=O)OC(C)(C)C1C` (stereo not given) the T/C [5] was 96 % of control, the T/C [6] was 98 % of control and the T/C [7] was 103 % of control.
In the case of `C[N+](C)(C)CCCO`, the T/C (dose: 12.5 mg/kg/injection, schedule: Q01DX009 (ip), vehicle: saline) is reported as 98 % of control, the T/C (dose: 25.0 mg/kg/injection, schedule: Q01DX009 (ip), vehicle: saline) is reported as 94 % of control and the T/C (dose: 50.0 mg/kg/injection, schedule: Q01DX009 (ip), vehicle: saline) is reported as 93 % of control.
For `O=c1oc2ccccc2c(O)c1C1=N/C(=N/N=C/c2ccc(Cl)cc2)SC1`, the T/C (dose: 15.0 mg/kg/injection, schedule: Q01DX005 (ip), vehicle: Klucel (hydroxypropylcellulose) (HPC)) was 98 % of control, the T/C (dose: 30.0 mg/kg/injection, schedule: Q01DX005 (ip), vehicle: Klucel (hydroxypropylcellulose) (HPC)) was 100 % of control and the T/C (dose: 60.0 mg/kg/injection, schedule: Q01DX005 (ip), vehicle: Klucel (hydroxypropylcellulose) (HPC)) was 101 % of control and 87 % of control. The T/C (dose: 60.0 mg/kg/injection, schedule: Q02DX002 (ip), vehicle: Klucel (hydroxypropylcellulose) (HPC)) was 97 % of control, the T/C (dose: 120.0 mg/kg/injection, schedule: Q02DX002 (ip), vehicle: Klucel (hydroxypropylcellulose) (HPC)) was 89 % of control and the T/C (dose: 240.0 mg/kg/injection, schedule: Q02DX002 (ip), vehicle: Klucel (hydroxypropylcellulose) (HPC)) was 93 % of control.
In the case of `COc1cc(/C=N/N2CC(=O)N(c3ccccc3)CC2=O)cc(OC)c1`, the T/C (dose: 6.25 mg/kg/injection, schedule: Q01DX005 (ip), vehicle: saline with Tween-80) is reported as 97 % of control, the T/C (dose: 12.5 mg/kg/injection, schedule: Q01DX005 (ip), vehicle: saline with Tween-80) is reported as 100 % of control and the T/C [2] is reported as 100 % of control.
`CN1CCN(c2ncc(S(=O)(=O)Cc3ccc(Cl)cc3)c(N)n2)CC1` was tested, and the T/C (dose: 100.0 mg/kg/injection, schedule: Q01DX001 (ip), vehicle: saline) was 95 % of control, the T/C (dose: 200.0 mg/kg/injection, schedule: Q01DX001 (ip), vehicle: saline) was 98 % of control and the T/C (dose: 400.0 mg/kg/injection, schedule: Q01DX001 (ip), vehicle: saline) was 98 % of control.

Source: PubChem BioAssay AID330 (DTP/NCI, 2004)
